From article PMC7272640, “Molecular docking, synthesis and biological evaluation of Vascular Endothelial Growth Factor (VEGF) B based peptide as antiangiogenic agent targeting the second domain of the Vascular Endothelial Growth Factor Receptor 1 (VEGFR1D2) for anticancer application” (Signal Transduction and Targeted Therapy, 2020)
Where a SMILES comes first, the peptide text is derived from it.

Columns and labels:
VEGFR1D2 = assay: Microscale thermophoresis (MST) binding of VGB3 to VEGFR1D2
Protocol: Previously, a tight association between VEGFR1 D2 and VEGF has also been reported (113pM).[4]
The binding affinity of peptide to its cognate receptor was measured by Microscale thermophoresis (MST) on a Nanotemper Monolith NT.115 instrument (Nanotemper Technologies GmbH). Purified VEGFR1D2 was freshly labeled with the Monolith His-Tag RED-tris-NTA labeling dye according to the supplied protocol (Nanotemper Technologies, GmbH). The labeled protein was concentrated using a PES centrifugation filter (3 kDa cutoff; VWR). Measurements were done in MST buffer (50 mM Tris, 250 mM NaCl, pH=7) in standard capillaries (K002; Nanotemper Technologies GmbH). The final concentrations of either labeled protein in the assay were 25 nM. The ligands (VGB3) was titrated in 1:1 dilutions following manufacturer’s recommendations and starting from 0.25 mM. All binding reactions were incubated for 10 min at room temperature followed by centrifugation at 20,000 g before loading into capillaries. All measurements were performed in triplicate using automatically assigned 20% LED and 60% MST power; Laser On-time was 30 sec and Laser Off time was 5 sec.

[1] = system: 4T1 mammary carcinoma cells; format: cell-based, murine
Protocol: (§1) 2× 10^3 HUVEC and 4T1 cell-line were cultured in DMEM medium supplemented with 10% FBS at 37 °C with 5% CO2 in 96-well plate. After 24 h, The cells were incubated in the media supplemented with 2% FBS, different concentrations (0, 0.015, 0.03, 0.061 μM) of VGB3 in the presence of (0.03 μg.ml^-1) VEGF-A (Sigma, St. Louis, MO) for 24 and 48 respectively. Then, cell proliferation was quantified by 3-(4,5–dimethylthiazol-2-yl)-2 ,5-diphenyl tetrazolium bromide (MTT) (Sigma, St. Louis, MO) solution (5 mg/mL) in PBS (pH 7.4) was added to each well and the plates were incubated in the dark at 37 °C for 4 h. Then the insoluble purple formazan product was dissolved by dimethyl sulfoxide (DMSO). Absorbance was measured at 570 nm using an ELISA plate reader. The assay was performed in triplicate.

HUVEC = format: cell-based, human
Protocol: as §1

[2] = system: 4T1 mammary carcinoma tumor; assay: In vivo antitumor efficacy, 4T1 mammary carcinoma tumor model; parameters: species or system Female BALB/c mice
Protocol: (§2) Female BALB/c mice (5–7 weeks) were purchased from the Laboratory Animal Center of the Iran Pasteur Institute and maintained under standardized environmental conditions: 12 h light-dark phases, with free access to food and water. For treatment with VGB3, Tumor cells (4T1; 1×10^6 cells/500 μl or 1×10^5 cells/50 μl) were injected subcutaneously into the right flanks of mice (n=3–5). To generate the metastatic model, 4T1 tumor models were sterilized, excised from the breast cancer-bearing BALB/c mice, cut into pieces of <0.3 cm3, and subcutaneously implanted into the animals' right flanks under ketamine (100 mg/kg, i.p.) and xylazine (10 mg/kg, i.p.) anesthesia. Animals carrying tumors of size ~100mm3 were randomized to 6 mice/group (n=6). The treatment groups received 0.02, 0.1, 0.2 or 0.5 mg/kg of VGB3 on alternate days and the control group received PBS i.v. into the mice for 19 days from day 13. The tumor volume was measured every 5 days by a digital Vernier caliper (Mitutoyo, Japan), using the following formula: v=a^2×b×0.52 (where a is the shortest and b is the longest diameter). All studies were performed under the guidelines and with the approval of the Institutional Animal Care and Use Committee (IACUC) of Tehran University of Medical Sciences.

4T1 tumor tissues = assay: Immunohistochemistry / TUNEL of excised 4T1 tumors; format: in vivo, Female BALB/c mice; settings: VGB3 0.2 mg/kg vs PBS, n = 6
Protocol: as §2
Excised tumor tissues for immunohistochemical (IHC) analysis were fixed in formalin (4%), embedded in paraffin, sectioned, and stained with hematoxylin-eosin (H&E). IHC was followed by heat-induced epitope retrieval in a buffer at pH 9.0. IHC staining for CD31 and CD34 (to assign MVD), Ki67 (to determine the percentage of Ki67-positive cells), and P53 and Bcl-2 (to determine the fraction of apoptotic cells relative to total cells) was performed on formalin-fixed paraffin-embedded sections. Staining for cell death with TUNEL (terminal deoxynucleotidyl transferase nick-end labeling)) was performed, followed by enzymatic development in diaminobenzidine (DAB) (Invitrogen, Carlsbad, California, USA) detection and counter-staining in hematoxylin. Images were acquired by microscopy (Olympus BX-51, Japan). Numbers of positive cells were determined by analyzing five random tissue samples under scale bars 100 and 20 μm, with quantification using ImageJ.

[3] = Body weight of tumor-bearing mice; format: in vivo, Female BALB/c mice; settings: VGB3 0.02-0.5 mg/kg i.v., day 13 till 31; two-way ANOVA
Protocol: as §2

Kd (VEGFR1D2; MST, Monolith NT.115, His-Tag RED-tris-NTA labelled VEGFR1D2 25 nM, VGB3 titrated in 1:1 dilutions from 0.25 mM, 50 mM Tris, 250 mM NaCl, pH=7, 10 min at room temperature, triplicate, read-out: dissociation constant (Kd)): 1960 ± 690 nM | binding constant fold lower than Kd of VEGFA to entire extracellular portion of VEGFR1 (VEGFR1D2; VGB3 Kd 1.96 μM vs VEGFA Kd ~50 nM): 40 fold | IC50 ([1]; 48 h): 30 nM | IC50 fold lower than that of VEGFR1D2 fragments ([1]; VGB3 IC50 30 nM in 4T1 vs ~180 nM for VEGFR1D2 fragments in HUVEC (ref 3)): 6 fold
SMILES: CC(C)C[C@@H]1NC(=O)CNC(=O)[C@H](CC(=O)O)NC(=O)[C@H](CC(=O)O)NC(=O)[C@@H]2CCCN2C(=O)[C@@H]2CCCN2C(=O)[C@H](CCCNC(=N)N)NC(=O)[C@@H](NC(=O)[C@@H](N)CCC(=O)O)CSSC[C@@H](C(=O)O)NC1=O [VGB3] (HELM PEPTIDE1{E.C.R.P.P.D.D.G.L.C}$PEPTIDE1,PEPTIDE1,2:R3-10:R3$$$V2.0)
IC50 (HUVEC; 48 h): 30 nM | inhibition of endothelial cell proliferation compared with other reported VEGF-B based peptides (HUVEC; comparison with refs 2,4,5): more effectively inhibited endothelial cell proliferation | inhibition of endothelial cell proliferation compared with clinically used drugs such as Bevacizumab (HUVEC; endothelial cell culture conditions, comparison with refs 2,4,5): more potent | inhibitory effects on tumor growth and angiogenesis compared with bevacizumab ([2]; VGB3 0.2 mg/kg i.v. once in every 2 days vs reported bevacizumab 2 mg/kg, twice per week): definitely higher | tumor growth inhibition vs PBS control ([2]; i.v., alternate days, 19 days from day 13, n = 6, dose of the statement not specified): Significant inhibition of tumor growth | Bcl-2 expression (4T1 tumor tissues; IHC): decreased | CD31 expression (4T1 tumor tissues; IHC): decreased | CD34 expression (4T1 tumor tissues; IHC): decreased | Ki67 expression (4T1 tumor tissues; IHC): decreased | p53 expression (4T1 tumor tissues; IHC): increased | TUNEL staining (4T1 tumor tissues): increased | body weight differences vs PBS control [3]: no significant (NS) differences
